In ChEMBL document CHEMBL1800000, “Identification of non-amidine inhibitors of acid-sensing ion channel-3 (ASIC3)” (Bioorg Med Chem Lett, 2011):
Active and inactive are the calls of the source. The calls are words filed in the database; no cut-off is given here.

How the values were obtained:
[1] = target: T1, Acid-sensing ion channel 3 (Homo sapiens, UniProt Q9UHC3); test: Inhibition of ASIC3 assessed as inhibition of peak current by electrophysiology method
T1 sequence (Q9UHC3 whole entry): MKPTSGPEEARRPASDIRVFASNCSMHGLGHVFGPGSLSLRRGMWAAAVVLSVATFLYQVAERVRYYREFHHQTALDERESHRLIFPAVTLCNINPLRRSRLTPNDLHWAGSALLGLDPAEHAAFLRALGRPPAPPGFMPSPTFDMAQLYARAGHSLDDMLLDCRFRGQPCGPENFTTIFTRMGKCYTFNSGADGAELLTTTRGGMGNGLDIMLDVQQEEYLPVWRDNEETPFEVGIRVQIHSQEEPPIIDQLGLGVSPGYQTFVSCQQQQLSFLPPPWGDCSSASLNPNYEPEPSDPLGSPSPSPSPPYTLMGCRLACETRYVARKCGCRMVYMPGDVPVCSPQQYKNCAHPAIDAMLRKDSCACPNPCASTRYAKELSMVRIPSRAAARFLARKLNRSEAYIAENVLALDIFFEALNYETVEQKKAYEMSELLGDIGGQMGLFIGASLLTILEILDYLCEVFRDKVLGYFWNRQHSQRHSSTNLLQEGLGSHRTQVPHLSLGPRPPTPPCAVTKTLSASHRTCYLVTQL

[2] = system: Rattus norvegicus; test: Induction of sedative activity in Sprague-Dawley rat at 100 mg/kg, po; format: organism-based; design: dose 100 mg/kg, route oral; conditions: in vivo
[3] = Ratio of drug level in brain to plasma in […]; format: ADME; conditions: rat, read-out: BPR
[4] = system: Rattus norvegicus; test: Antihyperalgesic effect in complete Freund's adjuvant-induced Sprague-Dawley rat inflammatory pain model assessed as reversal of mechanical hypersensitivity at 100 mg/kg, po after 30 mins; format: functional, organism-based; design: dose 100 mg/kg
[5] = system: Rattus norvegicus; test: Toxicity in Sprague-Dawley rat brain assessed as lethargy at 100 mg/kg, po; format: organism-based; design: dose 100 mg/kg, route oral; conditions: in vivo
[6] = Ratio of drug level in brain to plasma in Sprague-Dawley rat at 100 mg/kg, po; format: ADME, organism-based; design: dose 100 mg/kg, route oral; conditions: read-out: BPR
[7] = system: Brain; test: Drug uptake in Sprague-Dawley rat brain at 100 mg/kg, po; format: ADME, organism-based; design: dose 100 mg/kg, route oral; conditions: in vivo, read-out: Drug uptake
[8] = Plasma concentration in Sprague-Dawley rat at 100 mg/kg, po after 30 mins; format: ADME, organism-based; design: dose 100 mg/kg, route oral
[9] = target: T2, Acid-sensing ion channel 1 (Homo sapiens, UniProt P78348); test: Inhibition of ASIC1a
T2 sequence (P78348 whole entry): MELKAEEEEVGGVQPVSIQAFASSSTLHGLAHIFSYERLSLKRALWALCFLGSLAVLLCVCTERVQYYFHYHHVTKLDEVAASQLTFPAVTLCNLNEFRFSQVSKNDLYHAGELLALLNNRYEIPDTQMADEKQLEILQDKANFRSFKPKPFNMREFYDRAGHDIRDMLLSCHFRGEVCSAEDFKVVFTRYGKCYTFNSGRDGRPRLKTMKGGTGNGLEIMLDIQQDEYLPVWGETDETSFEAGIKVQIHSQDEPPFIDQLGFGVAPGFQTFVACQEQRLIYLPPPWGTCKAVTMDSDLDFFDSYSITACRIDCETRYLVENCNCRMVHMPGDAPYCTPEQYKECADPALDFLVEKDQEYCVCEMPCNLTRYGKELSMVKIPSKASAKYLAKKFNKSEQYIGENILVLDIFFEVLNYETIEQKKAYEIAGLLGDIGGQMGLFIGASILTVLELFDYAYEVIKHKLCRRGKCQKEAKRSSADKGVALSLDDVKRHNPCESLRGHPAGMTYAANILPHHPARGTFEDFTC

[10] = Inhibition of dopamine receptor
[11] = Inhibition of muscarinic receptor
[12] = Inhibition of adrenergic receptor
[13] = Inhibition of serotonin receptor

SMILES	IC50 [1] [nM]	other results
NCc1sc2cc(C#Cc3ccccc3)ccc2c1Cl	2800	
CC(c1cccc(C#Cc2ccc3c(Cl)c(CN)sc3c2)c1)N(C)C (stereo unspecified)	4300	
CN(C)C1CCCc2c(C#Cc3ccc4c(Cl)c(CN)sc4c3)cccc21 (stereo unspecified)	230	
CCN1CCc2ccc(C#Cc3ccc4c(Cl)c(CN)sc4c3)cc2C1	230	
N=C(N)c1sc2cc(C#Cc3ccccc3)ccc2c1Cl	3400	
CN(C)C1CCc2c(C#Cc3ccc4c(Cl)c(CN)sc4c3)cccc21 (stereo unspecified)	190	
NCc1sc2cc(C#Cc3ccc4c(c3)CN(CC(F)F)CC4)ccc2c1Cl	10200	
CC(C)(C)OC(=O)N1CCc2ccc(C#Cc3ccc4c(Cl)c(CN)sc4c3)cc2C1	> 50000	
CN1CCc2ccc(C#Cc3ccc4c(Cl)c(CN)sc4c3)cc2C1	680	
NCc1sc2cc(C#Cc3cccc4c3CCCC4N3CCCC3)ccc2c1Cl (stereo unspecified)	2500	
NCc1sc2cc(C#Cc3ccc4c(c3)CNCC4)ccc2c1Cl	220	Activity [2]: Toxic; Kp [3]: 15.4; Activity [4]: Active; Activity [5]: Toxic; Kp [6]: 6; concentration [7]: 14 µM; concentration at 0.5 h [8]: 3.6 µM; IC50 [9]: 224 nM
NCc1ccc2cc(C#Cc3ccccc3)ccc2c1	4800	
N=C(N)c1ccc2cc(C#Cc3ccccc3)ccc2c1	6300	
NCc1sc2cc(C#Cc3ccc4c(c3)CN(Cc3ccccc3)CC4)ccc2c1Cl	17100	
CC1c2cc(C#Cc3ccc4c(Cl)c(CN)sc4c3)ccc2CCN1C (stereo unspecified)	270	
CC(C)C1c2cc(C#Cc3ccc4cc(C(=N)N)ccc4c3)ccc2CCN1C (stereo unspecified)	460	Kp [3]: 2.6; IC50 [10]: < 10000 nM; IC50 [11]: < 10000 nM; IC50 [12]: < 10000 nM; IC50 [13]: < 10000 nM
NCc1sc2cc(C#Cc3ccc4c(c3)CN(CC(F)(F)F)CC4)ccc2c1Cl	> 50000	
CC(C)N1CCc2ccc(C#Cc3ccc4c(Cl)c(CN)sc4c3)cc2C1	310	
